# Assay results published in the supplement of paper PMC10307832.
# Columns and labels:
# Assay in all cases: relative viability (nuclei count vs DMSO), 5 days (fraction); higher = more cells survive
# BEN = tested on: BEN
# Method in brief: (§1)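 For relative viability, nuclei counts in treated wells were divided by those in vehicle wells. Lung cancer cell lines had been pin-tool dosed in 1536-well plates the day after seeding and cultured for 5 days, then fixed and stained in one step (final 0.05% Triton X-100, 1% formaldehyde, 1 ug/ml Hoechst) and imaged at 4×. Doses were one drug alone or a fixed anchor-drug dose plus five library-drug doses (not always all listed) in √10 steps, and values are duplicate-plate medians.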
# CAL-12T = tested on: CAL-12T
# Method in brief: as §1
# COR-L23 = tested on: COR-L23
# Method in brief: as §1
# HCC-44 = tested on: HCC-44
# Method in brief: as §1
# LU99A = tested on: LU99A
# Method in brief: as §1
# LXF-289 = tested on: LXF-289
# Method in brief: as §1
# NCI-H1355 = tested on: NCI-H1355
# Method in brief: as §1
# NCI-H1437 = tested on: NCI-H1437
# Method in brief: as §1
# NCI-H1563 = tested on: NCI-H1563
# Method in brief: as §1
# NCI-H1650 = tested on: NCI-H1650
# Method in brief: as §1
# NCI-H1651 = tested on: NCI-H1651
# Method in brief: as §1
# NCI-H1666 = tested on: NCI-H1666
# Method in brief: as §1
# NCI-H1755 = tested on: NCI-H1755
# Method in brief: as §1
# NCI-H1792 = tested on: NCI-H1792
# Method in brief: as §1
# NCI-H1993 = tested on: NCI-H1993
# Method in brief: as §1
# NCI-H2085 = tested on: NCI-H2085
# Method in brief: as §1
# NCI-H2087 = tested on: NCI-H2087
# Method in brief: as §1
# NCI-H2170 = tested on: NCI-H2170
# Method in brief: as §1
# NCI-H460 = tested on: NCI-H460
# Method in brief: as §1
# NCI-H520 = tested on: NCI-H520
# Method in brief: as §1
# PC-14 = tested on: PC-14
# Method in brief: as §1
# SK-MES-1 = tested on: SK-MES-1
# Method in brief: as §1
compound,measurement,setting,value
Cc1csc(=NC2CCCCC2)n1/N=C/c1ccc(O)c(O)c1O [MIM1] + CS(=O)(=O)N1CCN(Cc2cc3nc(-c4cccc5[nH]ncc45)nc(N4CCOCC4)c3s2)CC1 [Pictilisib] (partner 1 µM),relative viability,BEN; first compound 0.2 µM,0.607
same,relative viability,BEN; first compound 0.6325 µM,0.594
same,relative viability,BEN; first compound 2 µM,0.604
same,relative viability,BEN; first compound 6.325 µM,0.531
same,relative viability,BEN; first compound 20 µM,0.279
same,relative viability,CAL-12T; first compound 0.2 µM,0.394
same,relative viability,CAL-12T; first compound 2 µM,0.473
same,relative viability,CAL-12T; first compound 6.325 µM,0.453
same,relative viability,CAL-12T; first compound 20 µM,0.233
same,relative viability,COR-L23; first compound 0.2 µM,0.692
same,relative viability,COR-L23; first compound 0.6325 µM,0.654
same,relative viability,COR-L23; first compound 2 µM,0.844
same,relative viability,COR-L23; first compound 6.325 µM,0.525
same,relative viability,COR-L23; first compound 20 µM,0.217
same,relative viability,HCC-44; first compound 0.2 µM,0.811
same,relative viability,HCC-44; first compound 0.6325 µM,0.589
same,relative viability,HCC-44; first compound 2 µM,0.61
same,relative viability,HCC-44; first compound 6.325 µM,0.356
same,relative viability,HCC-44; first compound 20 µM,0.198
same,relative viability,LU99A; first compound 0.2 µM,0.394
same,relative viability,LU99A; first compound 0.6325 µM,0.344
same,relative viability,LU99A; first compound 2 µM,0.303
same,relative viability,LU99A; first compound 6.325 µM,0.306
same,relative viability,LU99A; first compound 20 µM,0.233
same,relative viability,LXF-289; first compound 0.2 µM,0.757
same,relative viability,LXF-289; first compound 0.6325 µM,0.689
same,relative viability,LXF-289; first compound 2 µM,0.823
same,relative viability,LXF-289; first compound 6.325 µM,0.676
same,relative viability,LXF-289; first compound 20 µM,0.522
same,relative viability,NCI-H1355; first compound 0.2 µM,0.402
same,relative viability,NCI-H1355; first compound 0.6325 µM,0.392
same,relative viability,NCI-H1355; first compound 2 µM,0.435
same,relative viability,NCI-H1355; first compound 6.325 µM,0.376
same,relative viability,NCI-H1355; first compound 20 µM,0.234
same,relative viability,NCI-H1437; first compound 0.2 µM,0.482
same,relative viability,NCI-H1437; first compound 0.6325 µM,0.382
same,relative viability,NCI-H1437; first compound 2 µM,0.516
same,relative viability,NCI-H1437; first compound 6.325 µM,0.269
same,relative viability,NCI-H1437; first compound 20 µM,0.128
same,relative viability,NCI-H1563; first compound 0.2 µM,0.628
same,relative viability,NCI-H1563; first compound 0.6325 µM,0.672
same,relative viability,NCI-H1563; first compound 2 µM,0.636
same,relative viability,NCI-H1563; first compound 6.325 µM,0.61
same,relative viability,NCI-H1563; first compound 20 µM,0.4
same,relative viability,NCI-H1650; first compound 0.2 µM,0.595
same,relative viability,NCI-H1650; first compound 0.6325 µM,0.545
same,relative viability,NCI-H1650; first compound 2 µM,0.434
same,relative viability,NCI-H1650; first compound 6.325 µM,0.176
same,relative viability,NCI-H1650; first compound 20 µM,0.167
same,relative viability,NCI-H1651; first compound 0.2 µM,0.646
same,relative viability,NCI-H1651; first compound 0.6325 µM,0.646
same,relative viability,NCI-H1651; first compound 2 µM,0.75
same,relative viability,NCI-H1651; first compound 6.325 µM,0.542
same,relative viability,NCI-H1651; first compound 20 µM,0.298
same,relative viability,NCI-H1666; first compound 0.2 µM,0.605
same,relative viability,NCI-H1666; first compound 0.6325 µM,0.398
same,relative viability,NCI-H1666; first compound 2 µM,0.476
same,relative viability,NCI-H1666; first compound 6.325 µM,0.422
same,relative viability,NCI-H1666; first compound 20 µM,0.311
same,relative viability,NCI-H1755; first compound 0.2 µM,0.465
same,relative viability,NCI-H1755; first compound 0.6325 µM,0.372
same,relative viability,NCI-H1755; first compound 2 µM,0.42
same,relative viability,NCI-H1755; first compound 6.325 µM,0.37
same,relative viability,NCI-H1755; first compound 20 µM,0.179
same,relative viability,NCI-H1792; first compound 0.2 µM,0.296
same,relative viability,NCI-H1792; first compound 0.6325 µM,0.293
same,relative viability,NCI-H1792; first compound 2 µM,0.26
same,relative viability,NCI-H1792; first compound 6.325 µM,0.252
same,relative viability,NCI-H1792; first compound 20 µM,0.221
same,relative viability,NCI-H1993; first compound 0.2 µM,0.829
same,relative viability,NCI-H1993; first compound 0.6325 µM,0.92
same,relative viability,NCI-H1993; first compound 2 µM,0.827
same,relative viability,NCI-H1993; first compound 6.325 µM,0.776
same,relative viability,NCI-H1993; first compound 20 µM,0.764
same,relative viability,NCI-H2085; first compound 0.2 µM,0.441
same,relative viability,NCI-H2085; first compound 0.6325 µM,0.431
same,relative viability,NCI-H2085; first compound 2 µM,0.518
same,relative viability,NCI-H2085; first compound 6.325 µM,0.461
same,relative viability,NCI-H2085; first compound 20 µM,0.631
same,relative viability,NCI-H2087; first compound 0.2 µM,0.959
same,relative viability,NCI-H2087; first compound 0.6325 µM,0.588
same,relative viability,NCI-H2087; first compound 2 µM,0.969
same,relative viability,NCI-H2087; first compound 6.325 µM,0.584
same,relative viability,NCI-H2087; first compound 20 µM,0.315
same,relative viability,NCI-H2170; first compound 0.2 µM,0.394
same,relative viability,NCI-H2170; first compound 0.6325 µM,0.28
same,relative viability,NCI-H2170; first compound 2 µM,0.321
same,relative viability,NCI-H2170; first compound 6.325 µM,0.272
same,relative viability,NCI-H2170; first compound 20 µM,0.238
same,relative viability,NCI-H460; first compound 0.2 µM,0.315
same,relative viability,NCI-H460; first compound 0.6325 µM,0.348
same,relative viability,NCI-H460; first compound 2 µM,0.249
same,relative viability,NCI-H460; first compound 6.325 µM,0.329
same,relative viability,NCI-H460; first compound 20 µM,0.274
same,relative viability,NCI-H520; first compound 0.2 µM,0.302
same,relative viability,NCI-H520; first compound 0.6325 µM,0.287
same,relative viability,NCI-H520; first compound 2 µM,0.295
same,relative viability,NCI-H520; first compound 6.325 µM,0.235
same,relative viability,NCI-H520; first compound 20 µM,0.246
same,relative viability,PC-14; first compound 0.2 µM,0.629
same,relative viability,PC-14; first compound 0.6325 µM,0.709
same,relative viability,PC-14; first compound 2 µM,0.628
same,relative viability,PC-14; first compound 6.325 µM,0.55
same,relative viability,PC-14; first compound 20 µM,0.488
same,relative viability,SK-MES-1; first compound 0.2 µM,0.358
same,relative viability,SK-MES-1; first compound 0.6325 µM,0.346
same,relative viability,SK-MES-1; first compound 2 µM,0.388
same,relative viability,SK-MES-1; first compound 6.325 µM,0.283
same,relative viability,SK-MES-1; first compound 20 µM,0.252
